Key:
MAPKAPK2 = MAPKAPK2 (Homo sapiens, UniProt P49137); assay: KINOMEscan: MAPKAPK2; format: binding; conditions: 1000 nM, read-out: Percent Control
MKNK2 = MKNK2 (Homo sapiens, UniProt Q9HBH9); assay: KINOMEscan: MKNK2; format: binding; conditions: 1000 nM, read-out: Percent Control
TIE2 = TIE2 (Homo sapiens, UniProt Q02763); assay: KINOMEscan: TIE2; format: binding; conditions: 100 nM, read-out: Percent Control
CSNK1A1L = CSNK1A1L (Homo sapiens, UniProt Q8N752); assay: KINOMEscan: CSNK1A1L; format: binding; conditions: 1000 nM, read-out: Percent Control
[1] = molecular target: RSK3(Kin.Dom.2-C-terminal) (Homo sapiens, UniProt Q15349); assay: KINOMEscan: RSK3(Kin.Dom.2-C-terminal); format: binding; conditions: 100 nM, read-out: Percent Control
GSK3β = GSK3β (Homo sapiens, UniProt P49841); assay: HotSpot radiometric kinase assay; format: biochemical; parameters: purchased ReactionBio; conditions: 10-dose series from 0.5 nM to 10 µM; vs dinaciclib, KB-0742, atuveciclib
Description: (§1) We next compared VIP152 to other CDK inhibitors currently in development. […] The compounds were tested in a 10-dose series from 0.5 nM to 10 µM against CDK9 in complex with Cyclin T1/T2/K, CDK7/Cyclin H, and GSK3α/β. […]
(§2) HotSpot Kinase Assay Protocol
(§3) Compounds tested via HotSpot Kinase Assay were sent to ReactionBio for the experiment. The […]
(§4) Kinase substrate was added to reaction buffer (20 mM Hepes (pH 7.5), 10 mM MgCl2, 1 mM EGTA, 0.01% Brij35, 0.02 mg/ml BSA, 0.1 mM Na3VO4, 2 mM DTT, 1% DMSO). Cofactors and kinases were gently added to the reaction buffer. Compounds to be tested were dissolved in 100% DMSO and were delivered into the kinase reaction mixture by Acoustic technology (Echo550; nanoliter range) and incubated for 20 min at room temperature. 32P-ATP was delivered into the reaction mixture and the reaction was allowed to proceed for 2 hours. Kinase activity was detected by P81 filter-binding method.

[2] = molecular target: CDK9 in complex with Cyclin T1 (Homo sapiens, UniProt P50750); assay: HotSpot radiometric kinase assay; format: biochemical; parameters: purchased ReactionBio
CDK9 in complex with Cyclin T1, sequence (P50750 whole entry): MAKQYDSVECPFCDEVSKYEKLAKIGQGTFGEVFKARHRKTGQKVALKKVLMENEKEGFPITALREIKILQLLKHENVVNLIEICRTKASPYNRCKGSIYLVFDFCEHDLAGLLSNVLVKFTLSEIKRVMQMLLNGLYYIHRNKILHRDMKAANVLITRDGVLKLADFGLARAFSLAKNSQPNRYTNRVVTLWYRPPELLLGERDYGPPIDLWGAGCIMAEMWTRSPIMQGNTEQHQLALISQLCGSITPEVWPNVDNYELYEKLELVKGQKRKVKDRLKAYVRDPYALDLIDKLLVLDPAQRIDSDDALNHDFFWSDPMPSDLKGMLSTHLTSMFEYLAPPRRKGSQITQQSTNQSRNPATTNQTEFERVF
CDK9 in complex with Cyclin T1, sequence (O60563 whole entry partner): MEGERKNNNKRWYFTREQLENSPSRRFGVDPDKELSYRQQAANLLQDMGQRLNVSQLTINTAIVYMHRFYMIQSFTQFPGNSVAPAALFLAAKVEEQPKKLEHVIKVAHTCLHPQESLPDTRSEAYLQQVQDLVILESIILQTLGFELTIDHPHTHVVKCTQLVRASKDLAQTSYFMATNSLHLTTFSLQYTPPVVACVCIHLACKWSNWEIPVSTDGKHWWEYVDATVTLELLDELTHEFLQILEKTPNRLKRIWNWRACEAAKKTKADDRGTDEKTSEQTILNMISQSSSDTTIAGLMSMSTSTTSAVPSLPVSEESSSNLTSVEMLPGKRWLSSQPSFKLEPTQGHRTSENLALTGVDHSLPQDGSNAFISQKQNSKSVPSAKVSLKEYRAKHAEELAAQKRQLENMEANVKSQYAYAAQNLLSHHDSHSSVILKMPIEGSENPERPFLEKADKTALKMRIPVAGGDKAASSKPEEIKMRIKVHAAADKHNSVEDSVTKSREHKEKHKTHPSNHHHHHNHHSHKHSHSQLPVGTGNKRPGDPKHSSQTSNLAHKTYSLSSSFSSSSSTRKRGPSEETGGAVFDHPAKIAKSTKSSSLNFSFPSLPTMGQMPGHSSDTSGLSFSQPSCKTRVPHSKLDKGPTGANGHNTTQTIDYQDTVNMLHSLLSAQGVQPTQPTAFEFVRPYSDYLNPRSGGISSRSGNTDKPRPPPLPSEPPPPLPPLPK
Description: as §1, §2, §3, §4

[3] = molecular target: CDK9 in complex with Cyclin T2 (Homo sapiens, UniProt P50750); assay: HotSpot radiometric kinase assay; format: biochemical; parameters: purchased ReactionBio; conditions: 10-dose series from 0.5 nM to 10 µM; vs dinaciclib, KB-0742, atuveciclib
Description: as §1, §2, §3, §4

WNK3 = WNK3 (Homo sapiens, UniProt Q9BYP7); assay: KINOMEscan: WNK3; format: binding; conditions: 100 nM, read-out: Percent Control
GSK3α = GSK3α (Homo sapiens, UniProt P49840); assay: HotSpot radiometric kinase assay; format: biochemical; parameters: purchased ReactionBio; conditions: 10-dose series from 0.5 nM to 10 µM; vs dinaciclib, KB-0742, atuveciclib
Description: (§5) We next compared VIP152 to other CDK inhibitors currently in development. […] The compounds were tested in a 10-dose series from 0.5 nM to 10 µM against CDK9 in complex with Cyclin T1/T2/K, CDK7/Cyclin H, and GSK3α/β.
(§6) Kinomescan Kinase Profiling Assay
(§7) Kinomescan Assay was performed at DiscoverRX and described in Fabian, et al. 2005, Nat.
(§8) Biotechnol. In brief, kinases were produced and subsequently tagged with DNA for qPCR detection.
(§9) Streptavidin-coated magnetic beads were bound to biotinylated kinase ligands to serve as a solid support.
(§10) VIP152 was dissolved in DMSO and tested across a 10 serial threefold dilution set and compared to a test […]
(§11) compound and a DMSO control.
(§12) Kinome map was produced via TreeSpot
(§13) Analysis from DiscoverRX.
as §2, §3
as §4, with “32P-ATP was delivered into the reaction mixture and the reaction was allowed to proceed for 2 hours.” left out, “method. […]” for “method.”

CDK7/Cyclin H = CDK7/Cyclin H (Homo sapiens, UniProt P50613); assay: HotSpot radiometric kinase assay; format: biochemical; parameters: purchased ReactionBio
Description: as §5, §6, §7, §8, §9, §10, §11, §12, §13, §2, §3
as §4, with “32P-ATP was delivered into the reaction mixture and the reaction was allowed to proceed for 2 hours.” left out, “method. […]” for “method.”

ROCK1 = ROCK1 (Homo sapiens, UniProt Q13464); assay: KINOMEscan: ROCK1; format: binding; conditions: 100 nM, read-out: Percent Control
ROCK1, sequence (Q13464 whole entry): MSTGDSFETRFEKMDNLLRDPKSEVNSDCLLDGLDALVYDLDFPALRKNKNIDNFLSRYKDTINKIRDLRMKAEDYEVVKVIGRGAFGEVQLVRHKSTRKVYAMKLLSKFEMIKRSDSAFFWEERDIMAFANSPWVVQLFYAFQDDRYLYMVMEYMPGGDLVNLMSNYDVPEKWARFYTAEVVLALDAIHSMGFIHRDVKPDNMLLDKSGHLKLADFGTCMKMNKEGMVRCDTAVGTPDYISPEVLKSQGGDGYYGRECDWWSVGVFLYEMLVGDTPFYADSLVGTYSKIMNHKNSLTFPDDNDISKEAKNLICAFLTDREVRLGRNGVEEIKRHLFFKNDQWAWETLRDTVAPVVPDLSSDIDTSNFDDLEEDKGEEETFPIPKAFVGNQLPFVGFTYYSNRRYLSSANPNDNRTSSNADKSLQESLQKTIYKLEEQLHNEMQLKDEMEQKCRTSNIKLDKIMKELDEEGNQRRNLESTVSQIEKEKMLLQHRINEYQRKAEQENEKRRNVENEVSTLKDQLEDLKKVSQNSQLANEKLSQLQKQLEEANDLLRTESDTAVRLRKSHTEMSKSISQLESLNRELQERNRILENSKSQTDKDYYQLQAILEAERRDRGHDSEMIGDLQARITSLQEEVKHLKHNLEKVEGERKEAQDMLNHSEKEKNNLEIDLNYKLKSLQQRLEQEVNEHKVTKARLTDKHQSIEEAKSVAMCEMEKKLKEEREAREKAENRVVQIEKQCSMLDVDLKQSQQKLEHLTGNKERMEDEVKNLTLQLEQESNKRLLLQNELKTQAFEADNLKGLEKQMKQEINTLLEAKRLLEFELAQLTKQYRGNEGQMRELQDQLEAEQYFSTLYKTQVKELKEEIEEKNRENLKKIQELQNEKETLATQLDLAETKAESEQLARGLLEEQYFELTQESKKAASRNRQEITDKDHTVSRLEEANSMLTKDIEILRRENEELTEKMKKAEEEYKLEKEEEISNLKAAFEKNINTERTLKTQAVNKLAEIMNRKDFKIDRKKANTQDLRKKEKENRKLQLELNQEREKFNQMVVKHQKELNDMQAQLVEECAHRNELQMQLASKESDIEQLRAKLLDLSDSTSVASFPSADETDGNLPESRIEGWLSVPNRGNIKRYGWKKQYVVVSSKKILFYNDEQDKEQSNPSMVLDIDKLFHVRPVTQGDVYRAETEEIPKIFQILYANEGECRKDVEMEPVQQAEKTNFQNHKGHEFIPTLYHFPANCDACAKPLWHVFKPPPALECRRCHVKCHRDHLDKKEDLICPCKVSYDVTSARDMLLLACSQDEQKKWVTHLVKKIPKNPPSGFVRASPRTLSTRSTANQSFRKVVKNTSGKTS

INSR = INSR (Homo sapiens, UniProt P06213); assay: KINOMEscan: INSR; format: binding; conditions: 1000 nM, read-out: Percent Control
INSR, sequence (P06213 28-1382): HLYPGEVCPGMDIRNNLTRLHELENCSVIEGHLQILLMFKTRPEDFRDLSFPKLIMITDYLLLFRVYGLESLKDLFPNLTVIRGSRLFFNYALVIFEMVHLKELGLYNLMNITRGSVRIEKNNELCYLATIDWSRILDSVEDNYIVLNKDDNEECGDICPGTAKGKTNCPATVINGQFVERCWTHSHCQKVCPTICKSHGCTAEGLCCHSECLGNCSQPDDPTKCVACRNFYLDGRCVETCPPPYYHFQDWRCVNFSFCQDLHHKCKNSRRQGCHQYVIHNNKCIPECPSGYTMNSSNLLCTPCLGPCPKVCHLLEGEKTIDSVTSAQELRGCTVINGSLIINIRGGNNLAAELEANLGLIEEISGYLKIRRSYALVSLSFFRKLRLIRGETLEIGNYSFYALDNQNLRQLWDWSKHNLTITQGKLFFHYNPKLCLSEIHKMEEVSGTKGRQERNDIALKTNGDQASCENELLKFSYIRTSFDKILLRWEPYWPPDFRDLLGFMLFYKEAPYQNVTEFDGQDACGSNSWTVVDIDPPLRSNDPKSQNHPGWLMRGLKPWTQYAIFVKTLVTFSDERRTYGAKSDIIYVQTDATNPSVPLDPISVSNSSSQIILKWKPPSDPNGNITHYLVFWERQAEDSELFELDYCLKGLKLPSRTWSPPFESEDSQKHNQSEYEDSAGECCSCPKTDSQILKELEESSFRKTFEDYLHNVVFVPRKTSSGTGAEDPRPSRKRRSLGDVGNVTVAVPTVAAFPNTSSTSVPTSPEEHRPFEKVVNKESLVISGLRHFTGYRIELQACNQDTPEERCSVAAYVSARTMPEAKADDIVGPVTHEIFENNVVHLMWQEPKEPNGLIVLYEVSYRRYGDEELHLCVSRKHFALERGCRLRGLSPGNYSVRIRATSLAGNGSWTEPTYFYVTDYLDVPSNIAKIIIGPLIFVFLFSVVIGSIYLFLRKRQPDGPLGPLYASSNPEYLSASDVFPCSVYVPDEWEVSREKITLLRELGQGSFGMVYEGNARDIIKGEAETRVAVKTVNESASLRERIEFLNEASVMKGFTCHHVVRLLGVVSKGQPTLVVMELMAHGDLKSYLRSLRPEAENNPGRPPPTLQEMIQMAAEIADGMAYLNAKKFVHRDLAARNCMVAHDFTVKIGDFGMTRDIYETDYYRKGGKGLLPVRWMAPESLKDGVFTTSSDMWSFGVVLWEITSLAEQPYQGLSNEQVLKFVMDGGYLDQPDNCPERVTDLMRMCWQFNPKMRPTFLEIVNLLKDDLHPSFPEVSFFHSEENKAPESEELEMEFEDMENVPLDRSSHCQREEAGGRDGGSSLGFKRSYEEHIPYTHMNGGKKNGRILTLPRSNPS

Adrenergic α1A = Adrenergic α1A (Rattus norvegicus, UniProt P43140); assay: Eurofins Diversity Panel; format: binding; conditions: Conc. 10 μM
DCAMKL1 = DCAMKL1 (Homo sapiens, UniProt O15075); assay: KINOMEscan: DCAMKL1; format: binding; conditions: 1000 nM, read-out: Percent Control
DCAMKL1, sequence (O15075 whole entry): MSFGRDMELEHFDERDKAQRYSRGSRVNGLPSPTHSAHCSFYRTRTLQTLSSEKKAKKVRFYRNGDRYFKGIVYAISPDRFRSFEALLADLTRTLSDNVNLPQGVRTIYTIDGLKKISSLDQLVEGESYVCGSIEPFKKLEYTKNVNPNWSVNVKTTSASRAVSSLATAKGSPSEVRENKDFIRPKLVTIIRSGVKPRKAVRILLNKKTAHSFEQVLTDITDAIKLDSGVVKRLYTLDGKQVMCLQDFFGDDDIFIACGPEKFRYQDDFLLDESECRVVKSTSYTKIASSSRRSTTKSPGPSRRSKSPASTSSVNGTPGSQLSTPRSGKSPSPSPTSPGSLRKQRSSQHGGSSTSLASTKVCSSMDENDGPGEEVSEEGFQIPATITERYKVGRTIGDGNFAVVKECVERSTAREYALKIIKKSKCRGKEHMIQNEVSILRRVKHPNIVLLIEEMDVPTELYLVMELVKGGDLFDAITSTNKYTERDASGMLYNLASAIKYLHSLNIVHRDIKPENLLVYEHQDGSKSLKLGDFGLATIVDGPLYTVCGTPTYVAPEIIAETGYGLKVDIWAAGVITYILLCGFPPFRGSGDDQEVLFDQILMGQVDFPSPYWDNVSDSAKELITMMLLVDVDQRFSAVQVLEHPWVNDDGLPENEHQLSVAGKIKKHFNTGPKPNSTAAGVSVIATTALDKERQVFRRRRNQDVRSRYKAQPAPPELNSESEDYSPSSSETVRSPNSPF

AMPK-alpha2 = AMPK-alpha2 (Homo sapiens, UniProt P54646); assay: KINOMEscan: AMPK-alpha2; format: binding; conditions: 1000 nM, read-out: Percent Control
[4] = molecular target: T1, CDK9 in complex with Cyclin K (Homo sapiens, UniProt P50750); assay: NanoBRET target engagement assay (HEK293); format: cell-based
T1 construct: host or cells: HEK293

FER = FER (Homo sapiens, UniProt P16591); assay: KINOMEscan: FER; format: binding; conditions: 1000 nM, read-out: Percent Control
YANK3 = YANK3 (Homo sapiens, UniProt Q86UX6); assay: KINOMEscan: YANK3; format: binding; conditions: 100 nM, read-out: Percent Control
YANK3, sequence (Q86UX6 whole entry): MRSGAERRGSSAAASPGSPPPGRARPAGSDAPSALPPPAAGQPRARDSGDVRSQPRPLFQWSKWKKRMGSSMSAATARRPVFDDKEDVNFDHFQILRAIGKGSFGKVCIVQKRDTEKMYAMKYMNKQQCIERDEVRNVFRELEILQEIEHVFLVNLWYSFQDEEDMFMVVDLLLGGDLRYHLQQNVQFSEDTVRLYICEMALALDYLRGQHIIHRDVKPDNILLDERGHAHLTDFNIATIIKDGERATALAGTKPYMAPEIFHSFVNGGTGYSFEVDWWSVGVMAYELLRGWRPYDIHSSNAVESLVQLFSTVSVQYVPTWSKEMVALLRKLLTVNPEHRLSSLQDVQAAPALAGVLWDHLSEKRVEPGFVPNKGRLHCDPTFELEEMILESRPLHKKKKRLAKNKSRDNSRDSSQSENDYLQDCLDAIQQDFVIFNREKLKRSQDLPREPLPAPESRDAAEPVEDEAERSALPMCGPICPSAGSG

RIOK2 = RIOK2 (Homo sapiens, UniProt Q9BVS4); assay: KINOMEscan: RIOK2; format: binding; conditions: 100 nM, read-out: Percent Control

COc1cc(F)ccc1-c1cc(Nc2cc(CS(C)(=N)=O)ccn2)ncc1F (stereo not drawn) [VIP152]
remaining binding at 1 µM (MAPKAPK2): 81% | remaining binding at 1 µM (MKNK2): 96% | remaining binding at 0.1 µM (TIE2): 100% | remaining binding at 1 µM (CSNK1A1L): 92% | remaining binding at 0.1 µM [1]: 100% | potency versus the other inhibitors tested (GSK3β): higher potency | potency versus the other inhibitors tested ([2]; 10-dose series from 0.5 nM to 10 µM, vs dinaciclib, KB-0742, atuveciclib): higher potency | increase in potency compared with other inhibitors currently in development ([2]; CDK9): > 10 fold | potency versus the other inhibitors tested [3]: higher potency | remaining binding at 0.1 µM (WNK3): 95% | potency versus the other inhibitors tested (GSK3α): higher potency | IC50 (CDK7/Cyclin H): > 10 µM | remaining binding at 0.1 µM (ROCK1): 100% | remaining binding at 1 µM (INSR): 97% | inhibition at 10 µM (Adrenergic α1A): 34% | remaining binding at 1 µM (DCAMKL1): 86% | remaining binding at 1 µM (AMPK-alpha2): 99% | potency versus the other inhibitors [4]: higher potency | remaining binding at 1 µM (FER): 97% | remaining binding at 0.1 µM (YANK3): 99% | remaining binding at 0.1 µM (RIOK2): 100%

Source: article PMC9898036, “VIP152 is a selective CDK9 inhibitor with pre-clinical in vitro and in vivo efficacy in chronic lymphocytic leukemia” (Leukemia, 2022)
